Test results as given in patent publication US8618145B2, “Small molecular compounds capable of accelerating proliferation of stem cells and use thereof” (priority 2009, dated 2013).

Tests used:
Rat neural stem cells = experiment: rat neural stem cell proliferation, ATP method; type: cell-based; conditions: serum free medium; for proliferation rate of neural stem cells in rat: rat adult neural stem cells
Experimental: (§1) Embryonic stem cell (obtained from oosperm according to the conventional method) is cultured in serum free medium (a conventional medium, such as DMEM/F12, αMEM, 1640, etc.). The experiments are divided into control group, FGF group, neural stem cells proliferation accelerator Ia group, FGF+neural stem cells proliferation accelerator Ia group. After culturing for 1 to 4 days, the kit CellTiter-Glo®Luminescent Cell Viability Assay (Promega) is used to detect cells proliferation by ATP method. The ATP method is performed in accordance with operational steps of the kit.
Rat neural stem cells are cultured in serum free medium. The experiments are divided into control group, FGF group, small molecular compound Ia group, and FGF+small molecular compound Ia group. The detection is carried out by ATP method (see the method in Example 6). Small molecular compound Ib, Ic, Id, Ie, If, Ig also conduct said experiment.

[1] = test system: rat mesenchymal stem cells; experiment: rat mesenchymal stem cell proliferation, MTT; type: cell-based; conditions: α-MEM+10% fetal bovine serum, 2 days, FIG. 4
Experimental: (§2) Human (rat) mesenchymal stem cells (a cell line obtained according to conventional method) is prepared into a single cell suspension by using a medium (α-MEM+10% fetal bovine serum), and is seeded at 1×10^4/well on 96-well plate. The experiments are divided into medium control group; and medium+small molecular compound Ia group. After culturing for 2 days, MTT (5 mg/ml) 10 ul is added. After incubating for 4 hours, a 100 μl lysis solution (10% SDS, 0.1% NH4Cl) is added. The mixture is incubated overnight. The light absorption value is detected at 490 nm.

[2] = test system: Human mesenchymal stem cells; experiment: human mesenchymal stem cell proliferation, MTT; type: cell-based; conditions: α-MEM+10% fetal bovine serum, 2 days, FIG. 3
Experimental: as §2

[3] = test system: hippocampus cells of AD rat; experiment: HE staining of hippocampus cells in AD rat; type: in vivo; conditions: AD rat of Example 13, dosage-dependent, FIG. 6 and FIG. 7
Experimental: The rats in Example 13 are perfused and their brains are taken. Rats are anesthetized with 10% chloral hydrate (0.3 ml/100 g). Heparin (200 ug/kg) is injected to the left ventricular, and the right atrial appendage is cut off. 40 ml physiological saline and then 300 ml 4% paraformaldehyde are perfused to the left ventricular to harden the brain. Brain taken: after breaking the neck, the skull is peeled to expose olfactory bulb, peeling it from olfactory bulb with a small curved scissor. After optic nerve is cut off, it is slowly peeled to naturally fall, the adhesion sites are cut off, and are placed into 4% paraformaldehyde solution overnight. It is dehydrated with gradient alcohol and is embedded in olefin, sectioned and floated.
HE staining: dewaxing with dimethylbenzene twice, each for 3 min. Hydration: hydration with descending concentration gradient alcohol: 100%→95%→90%→80%→70%. Dehydration lasts for 2˜3 mins to remove dimethylbenzene during each gradient. Water washing: ethanol is removed. It is dipped into a hematoxylin solution for 5-10 mins, and washed with tap-water. It is dipped into a dilute hydrochloric acid-ethanol solution to carry out color separation for only a few seconds. It is washed with tap-water and dipped into dilute ammonia to make the cell nucleus blue for 3-5 mins. […] It is mounted with neutral resin, and observed by […].

[4] = test system: AD rat model (aggregated Aβ1-40 injected in hippocampus); experiment: pharmacodynamic evaluation in AD rat (Morris water maze); type: in vivo; conditions: tail vein injection, administration for 14 days, FIG. 5
Experimental: Establishment of AD rat model: in the experiment, stereotaxic instrument and micro-injection pump are used to inject aggregated Aβ1-40 (5 ug/ul) 2 ul (0.4 ul/min, 5 min) to the dorsal blade of the dentate gyrus in the hippocampus of rat (3.0 mm behind anterior fontanelle, open at right 2.0 mm, subdural 3.2 mm, Incisor hook plane is 2.4 mm lower than the interaural line plane), the model is established after 2 weeks. […]
Pharmacodynamic experiment (Morris water maze): the experimental apparatus is a rustless steel round pool with a height of 60 cm, and a diameter of 150 cm (both the bottom and wall of the pool are covered by black paster to facilitate the video camera for distinguishing the white rats in pool), the video camera is connected to a computer; the pool is divided into four quadrants, and a platform is placed in the middle of the first quadrant. […] The experimental rats enter water from four different positions, the video camera records the swimming paths of each experimental rats, and the experimental results are analyzed by image processing software. […] During the experiment, the time the rat taken from entering water to climbing onto the platform (i.e., escape latency) is recorded, and the rat is allowed to stay on the platform for 10 sec. […] The escape latency of the animals, times of rearing up, and spatial bias are recorded and compared.

Embryonic stem cell = experiment: embryonic stem cell proliferation, ATP method (CellTiter-Glo); type: cell-based; conditions: serum free medium, culturing 1 to 4 days, FIG. 1
Experimental: as §1
Therefore, Ia accelerates the proliferation of embryonic stem cells.

Human neural stem cells = experiment: human neural stem cell proliferation, MTT; type: cell-based; conditions: DMEM/F12+10% fetal bovine serum+EGF, bFGF, 4 days, FIG. 2
Experimental: Human neural stem cells (provided according to conventional methods by Peking University Stem Cell Research Center) is prepared into a single cell suspension by using a medium (DMEM/F12+10% fetal bovine serum+20 ng/mIEGF, bFGF), and is seeded at 2×10^4/well on 96-well plate. The experiments are divided into medium control group (a group without adding a medicine); medium+small molecular compound Ia group (a group with a medicine added). After culturing for 4 days, MTT (5 mg/ml) 10 ul is added. After incubating for 4 hours, a 100 μl lysis solution (10% SDS, 0.1% NH4Cl) is added. The mixture is incubated overnight. The light absorption value is detected at 490 nm.
The experimental results are shown in FIG. 2, the height of the histogram represents absorbance, which is proportional to the number of cells (which has the same vertical coordinate in the MTT method, and is not explained one by one).

SMILES	proliferation rate of neural stem cells in rat (Rat neural stem cells)	effect on rat neural stem cell proliferation (in words) (Rat neural stem cells)	rat mesenchymal stem cell proliferation [1]	human mesenchymal stem cell proliferation [2]	degeneration of hippocampus cells (HE staining) [3]	ability of learning and memory (water maze) [4]	embryonic stem cell proliferation (chemiluminescence intensity) (Embryonic stem cell)	human neural stem cell proliferation (absorbance at 490 nm) (Human neural stem cells)
NNC(=O)Nc1ccc(-c2nnc(S)o2)cc1 [Id, 4-(4-(5-mercapto-1,3,4-oxadiazol-2-yl)phenyl) semicarbazide]	1.7	accelerate rat neural stem cell proliferation						
NNC(=S)Nc1ccc(-c2nnc(S)o2)cc1 [Ia, 4-(4-(5-mercapto-1,3,4-oxadiazol-2-yl)phenyl) thiosemicarbazide]	4.2	accelerate rat neural stem cell proliferation	accelerates rat mesenchymal stem cell proliferation	accelerates human mesenchymal stem cell proliferation	less seriously degenerated	improved ability of learning and memory	significantly increased	accelerates human neural stem cell proliferation
COc1ccc(NNC(=S)Nc2ccc(-c3nnc(S)o3)cc2)cc1 [If]	2.3	accelerate rat neural stem cell proliferation						
S=C(NNc1ccc(Cl)cc1)Nc1ccc(-c2nnc(S)o2)cc1 [Ie]	2.5	accelerate rat neural stem cell proliferation						
CNC(=S)Nc1ccc(-c2nnc(SC)o2)cc1 [Ic, 1-methyl-3-(4-(5-(methylthio)-1,3,4-oxadiazol-2-yl)phenyl)thiourea]	1.5	accelerate rat neural stem cell proliferation						
CNC(=S)Nc1ccc(-c2nnc(O)o2)cc1 [Ig, 1-methyl-3-(4-(5-oxo-4,5-dihydro-1,3,4-oxadiazol-2-yl)phenyl)thiourea]	2.4	accelerate rat neural stem cell proliferation						
CSc1nnc(-c2ccc(NC(=S)NN)cc2)o1 [Ib, 4-(4-(5-(methylthio)-1,3,4-oxadiazol-2-yl)phenyl) thiosemicarbazide]	2	accelerate rat neural stem cell proliferation						
